Test results as given in article PMC4833520 (Bioorganic & medicinal chemistry, 2016).

Experiments:
σ1 receptor = σ1 receptor (Cavia porcellus, UniProt Q60492); assay: PDSP radioligand binding, σ1 receptor
[1] = molecular target: human dopamine D1 receptor (Homo sapiens, UniProt P21728); assay: PDSP radioligand binding, dopamine D1 receptor; conditions: ratio of Ki values
Chain of human dopamine D1 receptor (P21728 whole entry): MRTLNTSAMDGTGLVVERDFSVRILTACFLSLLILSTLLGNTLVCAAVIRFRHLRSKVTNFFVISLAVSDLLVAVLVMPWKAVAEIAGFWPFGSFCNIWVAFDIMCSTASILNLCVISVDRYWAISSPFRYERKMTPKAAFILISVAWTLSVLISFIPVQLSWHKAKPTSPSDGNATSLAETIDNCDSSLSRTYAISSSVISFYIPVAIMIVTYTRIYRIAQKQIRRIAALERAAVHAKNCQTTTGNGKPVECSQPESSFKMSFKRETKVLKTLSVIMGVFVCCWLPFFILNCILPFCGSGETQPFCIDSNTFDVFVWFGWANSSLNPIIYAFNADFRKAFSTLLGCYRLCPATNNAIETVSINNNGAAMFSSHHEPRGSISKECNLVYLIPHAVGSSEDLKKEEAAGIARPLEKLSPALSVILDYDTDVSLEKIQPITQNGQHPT

Chain of σ1 receptor (Q60492 whole entry): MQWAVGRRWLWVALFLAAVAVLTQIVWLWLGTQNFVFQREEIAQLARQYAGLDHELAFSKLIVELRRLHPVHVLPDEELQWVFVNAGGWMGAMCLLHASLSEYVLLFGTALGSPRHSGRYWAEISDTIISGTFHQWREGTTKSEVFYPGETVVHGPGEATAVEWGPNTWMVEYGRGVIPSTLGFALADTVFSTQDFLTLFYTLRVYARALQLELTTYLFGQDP

| Compound | selectivity for σ1 versus σ2 receptors (σ1 receptor) | Selectivity D3/D1 [1] |
| --- | --- | --- |
| CCCCCCOc1ccc2c(c1OC)CN1CCc3cc(OC)c(O)cc3C1C2 (centres unmarked) [Compound 15, 10-(Hexyloxy)-3,9-dimethoxy-5,8,13,13a-tetrahydro-6H-isoquinolino[3,2-a]isoquinolin-2-ol] | approximately 3 fold | – |
| COc1cc2c(cc1O)C1Cc3ccc(OCCCO)c(OC)c3CN1CC2 (centres unmarked) [Compound 16, 10-(3-Hydroxypropoxy)-3,9-dimethoxy-5,8,13,13a-tetrahydro-6H-isoquinolino[3,2-a]isoquinolin-2-ol] | – | 16 |
